Measured values from the supplement of paper PMC4977894.
± gives the standard deviation of the averaged measurements.

Tests used:
[1] = tested on: Homo sapiens (human subject panel, olfactory perception); test: perceived odor familiarity rating (rating 0-100); higher = more familiar
Protocol: (§1)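 Human olfactory psychophysics. 55 healthy subjects (after excluding 6 low performers) sniffed 1 mL of each odorant diluted in paraffin oil (vials, two dilutions per molecule, 20 molecules presented twice). Each subject rated intensity, pleasantness and familiarity on a 0-100 slider, starting at 50 and required to move. Ratings were given only when the subject reported detecting a smell; per-subject ratings are averaged over subjects.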

[2] = tested on: Homo sapiens (human subject panel, olfactory perception); test: perceived odor pleasantness rating (rating 0-100); higher = more pleasant
Protocol: as §1

[3] = tested on: Homo sapiens (human subject panel, olfactory perception); test: perceived odor intensity rating (rating 0-100); higher = stronger perceived smell
Protocol: as §1

[4] = odor dilution in paraffin oil: 1/1,000
[5] = odor dilution in paraffin oil: 1/100,000
[6] = odor dilution in paraffin oil: 1/10,000,000
[7] = odor dilution in paraffin oil: 1/10

Row | Structure (SMILES) | perceived odor familiarity rating [1, 4] | perceived odor familiarity rating [1, 5] | perceived odor pleasantness rating [2, 4] | perceived odor pleasantness rating [2, 5] | perceived odor intensity rating [3, 4] | perceived odor intensity rating [3, 5] | perceived odor familiarity rating [1, 6] | perceived odor pleasantness rating [2, 6] | perceived odor intensity rating [3, 6] | perceived odor familiarity rating [1, 7] | perceived odor pleasantness rating [2, 7] | perceived odor intensity rating [3, 7]
1 | CCCCCCCCOC(=O)CC(C)C [Octyl isovalerate] | 35.1 ± 30 | 38.3 ± 33 | 39.4 ± 22 | 54.1 ± 21 | 28.9 ± 33 | 23.4 ± 28 |  |  |  |  |  | 
2 | CCCCCCCO [heptanol (replicate)] | 51.9 ± 33 | 39.9 ± 29 | 48.5 ± 29 | 58 ± 23 | 72.2 ± 24 | 29.7 ± 30 |  |  |  |  |  | 
3 | CCCC(=O)OCC [ethyl butyrate] | 65.6 ± 29 | 53.5 ± 30 | 61.1 ± 33 | 59.6 ± 26 | 77.8 ± 20 | 49.6 ± 32 |  |  |  |  |  | 
4 | Cc1ccc(C(C)C)cc1O [Carvacrol] | 62.7 ± 31 | 58.8 ± 32 | 48 ± 28 | 53.2 ± 24 | 74.1 ± 20 | 50.4 ± 26 |  |  |  |  |  | 
5 | CCC(=O)O [propionic acid] |  | 35.3 ± 31 |  | 39.5 ± 25 |  | 34.4 ± 33 | 36.8 ± 25 | 45.2 ± 24 | 20.5 ± 27 |  |  | 
6 | O=C(OCCc1ccccc1)c1ccco1 [Phenethyl 2-furoate] | 52.4 ± 37 | 40.5 ± 34 | 58.7 ± 25 | 50.6 ± 24 | 44.8 ± 31 | 24.1 ± 30 |  |  |  |  |  | 
7 | CCCC1CCOC(C)S1 (configuration not stated) [2-Methyl-4-propyl-1,3-oxathiane] |  | 53.6 ± 33 |  | 38.8 ± 30 |  | 68.7 ± 25 | 27.9 ± 27 | 51 ± 26 | 22.7 ± 30 |  |  | 
8 | CCCCCCOC(=O)c1ccccc1 [Hexyl benzoate (replicate)] | 36.7 ± 29 |  | 40.3 ± 23 |  | 35.9 ± 32 |  |  |  |  | 38.4 ± 28 | 31.9 ± 24 | 71.5 ± 26
9 | O=C1CCCCC1 [Cyclohexanone] | 52.5 ± 28 | 26.7 ± 25 | 38 ± 27 | 47.9 ± 23 | 69.9 ± 22 | 19.6 ± 27 |  |  |  |  |  | 
10 | C=CC(C)(O)CCC=C(C)C (configuration not stated) [Linalool] | 60.6 ± 32 | 39.9 ± 30 | 74.6 ± 19 | 66 ± 23 | 62.1 ± 26 | 32.6 ± 25 |  |  |  |  |  | 
11 | CC(=O)OC/C=C(/C)CCC=C(C)C [Neryl acetate] | 35.6 ± 28 |  | 43 ± 18 |  | 14.7 ± 20 |  |  |  |  | 49.1 ± 28 | 49.9 ± 26 | 67.2 ± 26
12 | CCCCCCCCCCCCO [Lauryl alcohol] | 32 ± 30 |  | 43 ± 26 |  | 24.8 ± 31 |  |  |  |  | 50.1 ± 29 | 35.8 ± 25 | 64.6 ± 28
13 | CCCCCCCOC(C)=O [heptyl acetate] | 42.6 ± 31 |  | 61.6 ± 22 |  | 37.1 ± 31 |  |  |  |  | 55.8 ± 34 | 53.4 ± 32 | 82.2 ± 18
14 | CCOC(C)=O [ethyl acetate] | 44.2 ± 30 | 40 ± 32 | 45.2 ± 22 | 45.7 ± 29 | 40.3 ± 29 | 19.3 ± 24 |  |  |  |  |  | 
15 | CCCCCCCCCC1CCCC(=O)O1 (configuration not stated) [delta-Tetradecalactone] | 47.2 ± 27 | 33 ± 25 | 45.5 ± 24 | 48.1 ± 22 | 33.7 ± 26 | 20.7 ± 24 |  |  |  |  |  | 
16 | CCCCC=O [valeraldehyde] |  | 43.7 ± 26 |  | 43 ± 25 |  | 41.3 ± 30 | 38.9 ± 28 | 49.8 ± 26 | 18.8 ± 22 |  |  | 
17 | CCCC(=O)SC [Methyl thiobutyrate] | 50.2 ± 36 | 45.1 ± 32 | 4.96 ± 12 | 16.2 ± 22 | 92.4 ± 14 | 69.8 ± 26 |  |  |  |  |  | 
